Measurements: patent publication US8034806B2, “Bicyclic mGluR5 positive allosteric modulators and methods of making and using same” (Vanderbilt University, priority 2007, dated 2011)

Target: T1, rat mGluR5 (Rattus norvegicus, UniProt P31424)
T1 construct: expressed in transfected cells; host or cells: HEK (human embryonic kidney) cells
Experiment: Potentiation of glutamate response, calcium fluorescence (FDSS) in HEK cells transfected with rat mGluR5
Type: cell-based
Details: for mGluR5 Potentiator Max: maximum extent of potentiation, normalized to the maximal response to agonist, in % (unit assumed); for EC50: HEK cells transfected with rat mGluR5, EC20 concentration of glutamate, read-out: mGluR5 Potentiator EC50
Experimental: Human embryonic kidney (HEK) cells transfected with rat mGluR5 were plated in clear bottom assay plates for assay in a Functional Drug Screening System (FDSS). The cells were loaded with a […] fluorescent dye (e.g., Fluo-4), and the plates were washed and placed in the FDSS instrument. After establishment of a fluorescence baseline for twelve seconds, the compounds of the present invention were added to the cells, and the response in cells was measured. Five minutes later, an mGluR5 agonist (e.g., glutamate, 3,5-dihydroxyphenylglycine, or quisqualate) was added to the cells, and the response of the cells was measured. Potentiation of the agonist response of mGluR5 by the compounds in the present invention was observed as an increase in response to non-maximal concentrations of agonist (here, glutamate) in the presence of compound compared to the response to agonist in the absence of compound.
The above described assay operated in two modes. In the first mode, a range of concentrations of the present compounds were added to cells, followed by a single fixed concentration of agonist. If a compound acted as a potentiator, an EC50 value for potentiation and a maximum extent of potentiation by the compound at this concentration of agonist was determined by non-linear curve fitting. In the second mode, several fixed concentrations of the present compounds were added to various wells on a plate, followed by a range of concentrations of agonist for each concentration of present compound; the EC50 values for the agonist at each concentration of compound were determined by non-linear curve fitting. A decrease in the EC50 value of the agonist with increasing concentrations of the present compounds (a leftward shift of the agonist concentration-response curve) is an indication of the degree of mGluR5 potentiation at a given concentration of the present compound. An increase in the EC50 value of the agonist with increasing concentrations of the present compounds (a rightward shift of the agonist concentration-response curve) is an indication of the degree of mGluR5 antagonism at a given concentration of the present compound. The second mode also indicates whether the present compounds also affect the maximum response to mGluR5 to agonists.
Human embryonic kidney (HEK) cells transfected with rat mGluR5 were plated in clear-bottomed, poly-D-lysine-coated assay plates in glutamate-glutamine-free medium growth and incubated overnight at 37° C. in 5% CO2. The following day, cells were loaded with 2 μM calcium indicator dye, fluo-4 AM, for 1 h at 37° C. Dye was removed and replaced with assay buffer containing 1× Hanks balanced salt solution (Invitrogen, Carlsbad, Calif.), 20 mM HEPES, and 2.5 mM probenecid, pH 7.4. Cell plates were then loaded into the Functional Drug Screening System 6000 (FDSS 6000, Hamamatsu, Japan). After establishment of a fluorescence baseline for twelve seconds, the compounds of the present invention were added to the cells, and the response in cells was measured. Five minutes later, an mGluR5 agonist (e.g., glutamate, 3,5-dihydroxyphenylglycine, or quisqualate) was added to the cells, and the response of the cells was measured during a 1 minute incubation with agonists. Typically, the effect of test compounds of the present invention was on an EC20 concentration of glutamate was measured. All test compounds were dissolved and diluted in 100% DMSO and then serially diluted into assay buffer for a 2.5× stock in 0.25% DMSO; stock compounds were then added to the assay for a final DMSO concentration of 0.1%. Calcium fluorescence measures were recorded as fold over basal fluorescence; raw data was then normalized to the maximal response to agonist. Potentiation of the agonist response of mGluR5 by the compounds in the present invention was observed as an increase in response to non-maximal concentrations of agonist (here, glutamate) in the presence of compound compared to the response to agonist in the absence of compound. […]

T1 sequence (P31424 21-1203): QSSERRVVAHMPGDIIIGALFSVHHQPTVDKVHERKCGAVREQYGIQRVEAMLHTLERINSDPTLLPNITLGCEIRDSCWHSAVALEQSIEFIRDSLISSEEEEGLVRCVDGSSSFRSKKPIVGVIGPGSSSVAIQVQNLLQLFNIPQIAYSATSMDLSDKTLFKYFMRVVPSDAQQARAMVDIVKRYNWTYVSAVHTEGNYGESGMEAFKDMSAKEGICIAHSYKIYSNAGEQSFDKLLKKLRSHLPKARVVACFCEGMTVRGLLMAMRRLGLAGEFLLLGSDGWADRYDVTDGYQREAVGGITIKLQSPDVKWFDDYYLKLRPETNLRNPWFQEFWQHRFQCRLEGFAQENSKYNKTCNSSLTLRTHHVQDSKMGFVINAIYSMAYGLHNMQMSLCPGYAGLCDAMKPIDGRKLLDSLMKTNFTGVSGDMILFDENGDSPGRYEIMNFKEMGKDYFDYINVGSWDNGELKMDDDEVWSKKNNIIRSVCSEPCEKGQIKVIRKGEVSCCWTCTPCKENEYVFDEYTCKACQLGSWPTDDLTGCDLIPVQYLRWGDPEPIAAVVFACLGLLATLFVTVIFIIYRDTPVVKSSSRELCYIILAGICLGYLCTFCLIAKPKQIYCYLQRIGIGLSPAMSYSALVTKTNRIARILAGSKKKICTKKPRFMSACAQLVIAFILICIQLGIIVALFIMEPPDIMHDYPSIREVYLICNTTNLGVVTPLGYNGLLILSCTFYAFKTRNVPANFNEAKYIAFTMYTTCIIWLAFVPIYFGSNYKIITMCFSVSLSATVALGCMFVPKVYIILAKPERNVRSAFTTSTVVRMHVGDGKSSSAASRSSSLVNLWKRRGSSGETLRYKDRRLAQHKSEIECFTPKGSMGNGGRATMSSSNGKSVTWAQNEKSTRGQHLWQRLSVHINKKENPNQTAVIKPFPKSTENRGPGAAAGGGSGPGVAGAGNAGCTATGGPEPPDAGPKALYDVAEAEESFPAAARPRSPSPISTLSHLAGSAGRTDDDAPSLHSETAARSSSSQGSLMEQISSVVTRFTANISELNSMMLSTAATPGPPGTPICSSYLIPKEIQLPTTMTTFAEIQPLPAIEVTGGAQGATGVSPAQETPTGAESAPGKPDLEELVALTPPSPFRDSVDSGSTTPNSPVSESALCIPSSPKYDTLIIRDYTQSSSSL

Row | Structure (SMILES) | mGluR5 Potentiator Max | EC50 [nM]
1 | O=C1NCCc2cc(C#Cc3ccc(Cl)cc3)ccc21 [VU000113] | 28.6 | –
2 | O=C1NCCc2cc(C#Cc3ccccc3C(F)(F)F)ccc21 [VU000121] | 34.8 | –
3 | Cc1cccc(C#Cc2ccc3c(c2)CCNC3=O)c1 [VU000106] | 75.7 | 172
4 | CN(C)c1ccc(C#Cc2ccc3c(c2)CCNC3=O)cc1 [VU000118] | 28.9 | –
5 | O=C(CN1CCc2cc(C#Cc3ccccc3)ccc2C1=O)N1CCOCC1 [VU000130] | 55.4 | 2350
6 | O=C1c2ccc(C#Cc3ccccc3)cc2CCN1CCN1CCC(O)CC1 [VU000102] | 45.7 | 4040
7 | CCOC(=O)C(CC)N1CCc2cc(C#Cc3ccccc3)ccc2C1=O (stereo not shown) [VU000073] | 85.4 | 87.7
8 | O=C1NCCc2cc(C#Cc3ccc(F)cc3)ccc21 [VU000107] | 81 | 259
9 | O=C1c2ccc(C#Cc3ccccc3)cc2CCN1CCN1CCOCC1 [VU000101] | 84 | 3570
10 | O=C1NCCc2cc(C#Cc3ccncc3)ccc21 [VU000117] | 58 | 243
11 | COc1cccc(C#Cc2ccc3c(c2)CCNC3=O)c1 [VU000110] | 58.1 | 3390
12 | O=C1NCCc2cc(C#Cc3cc(F)cc(F)c3)ccc21 [VU000116] | 35.6 | 3000
13 | O=C(CN1CCc2cc(C#Cc3ccccc3)ccc2C1=O)OCc1ccccc1 [VU000072] | 88.4 | 77.3
14 | O=C1NCCc2cc(C#Cc3cccc(Cl)c3)ccc21 [VU000114] | 67.9 | 470
15 | COCCNC(=O)CN1CCc2cc(C#Cc3ccccc3)ccc2C1=O [VU000127] | 52.3 | 3060
16 | O=C1NCCc2cc(C#Cc3ccccc3Cl)ccc21 [VU000111] | 53.2 | 4890
17 | O=C(CN1CCc2cc(C#Cc3ccccc3)ccc2C1=O)NCCN1CCCCC1 [VU000129] | 30 | –
18 | O=C1c2ccc(C#Cc3ccccc3)cc2CCN1CC1CCC1 [VU000099] | 90.7 | 26.7

Row | Structure (SMILES) | mGluR5 Potentiator Max | EC50 [nM]
19 | CN1CCN(C(=O)CN2CCc3cc(C#Cc4ccccc4)ccc3C2=O)CC1 [VU000131] | 35.4 | 7200
20 | O=C(CN1CCc2cc(C#Cc3ccccc3)ccc2C1=O)N1CCC(O)CC1 [VU000128] | 37.6 | –
21 | O=C1c2ccc(C#Cc3ccccc3)cc2CCN1CCN1CCC1 [VU000100] | 76.3 | 4040
22 | Cc1ccccc1C#Cc1ccc2c(c1)CCNC2=O [VU000105] | 53.4 | 612
23 | O=C1c2ccc(C#Cc3ccccc3)cc2CCN1CC1CC1 [VU000098] | 69.4 | 17.5
24 | O=C1c2ccc(C#Cc3ccccc3)cc2CCN1Cc1ccccc1 [VU000071] | 89.9 | 546
25 | O=C1NCCc2cc(C#Cc3ccc(F)cc3F)ccc21 [VU000115] | 58.7 | 853
26 | Cc1cc(C#Cc2ccc3c(c2)CCNC3=O)ccc1F [VU000112] | 49.7 | 3670
27 | O=C(CN1CCc2cc(C#Cc3ccccc3)ccc2C1=O)NCC1CC1 [VU000124] | 53.7 | 953
28 | CCCN1CCc2cc(C#Cc3ccccc3)ccc2C1=O [VU000069] | 96.5 | 16.2
29 | O=C(CN1CCc2cc(C#Cc3ccccc3)ccc2C1=O)NC1CC1 [VU000125] | 52.6 | 3080
30 | CN(C)CCNC(=O)CN1CCc2cc(C#Cc3ccccc3)ccc2C1=O [VU000126] | 35.4 | 1.66
31 | CCCCN1CCc2cc(C#Cc3ccccc3)ccc2C1=O [VU000070] | 96.7 | 96
32 | COc1ccc(C#Cc2ccc3c(c2)CCNC3=O)cc1 [VU000109] | 28.2 | –
33 | CN1CCc2cc(C#Cc3ccccc3)ccc2C1=O [VU000068] | 53.4 | 25.4
34 | O=C1NCCc2cc(C#Cc3cccc(C(F)(F)F)c3)ccc21 [VU000120] | 33.5 | –
35 | O=C1NCCc2cc(C#Cc3ccccc3F)ccc21 [VU000108] | 80.4 | 145
36 | COc1ccc(C#Cc2ccc3c(c2)CCNC3=O)c(C)c1 [VU000119] | 29.7 | –
